For one data set, the system named is TMBP-GFP cells. Kind of data set: Intravital videomicroscopy: motility of TMBP-GFP cells in the spleen. The following applies: 3 d after T cell transfer, 6.5 μm/min in DMSO-treated controls, preliminary. In kind it is in vivo, rat. As for the experimental part: Intravital videomicroscopy of the spleen of vehicle (DMSO, left) A or BZ194 B-treated animals 3 d after T cell transfer. The ratio between stationary and motile MBP-specific GFP T cells (upper graphs) and cell trajectories (lower graphs, 10 min analysis) are shown. Stationary cells are defined as cells moving less than 10 μm in 10 minutes.
Animals were anesthetized by intraperitoneal injection of xylazine/ketamine (10 mg/kg and 50 mg/kg, respectively), with reapplied doses (1 mg/kg xylazine/5 mg/kg ketamine) administered as required. Adequate oxygenation was ensured by an oxygen (95% O2/5% CO2) mask fixed on the animal's snout. Body temperature was controlled by a heated pad. For spleen imaging temperature and moistness controlled chambers were constructed for inverted microscope settings. Surgically exposed spleens with intact vasculature were carefully placed into the chambers superfused with carbogenated HBSS (95% O25% CO2).
Time-lapse recordings were performed using an inverted microscope (Zeiss, Axiovert 200M) equipped with a 20×, 0.4 NA objective (Zeiss). Images were acquired using a Coolsnap-HQ camera (Photometrics, Roper Scientific, Tuscon, Ariz.) in 30 s time intervals and processed by MetaMorph (Visitron Systems, Puchheim, Germany). Image J software (freeware, provided by Wayne Rasband, NIH) was used to evaluate cell trajectories and velocity.

Another data set relates to OVA-specific T cells. Kind of data set: Proliferation of cultured OVA-specific T cells. It counts as cell-based.
Data set [1] relates to T cell receptor/CD3 complex mediated Ca2+ signalling. Description: T cell receptor/CD3 complex mediated Ca2+ signalling in human T cells. In kind it is cell-based. The procedure:
Intact Jurkat T-lymphocytes were loaded with fura2/AM. Ratiometric determination of [Ca^2+]i was carried out in cell suspension in a Hitachi F2000 fluorometer at room temperature at excitation wavelengths of 340 and 380 nm (alternating) and an emission wavelength of 495 nm. Each experiment was calibrated by addition of Triton X100 (10% v/v final concentration) to obtain the maximal ratio and subsequent addition of 4 mM EGTA/40 mM Tris-base to obtain the minimal ratio.
[Ca^2+]i was measured by using the fluorescent indicator Fura2/AM. In brief, 10^7 cells were loaded with Fura2/AM, and fluorescence was determined in batches of 1.5×10^6 cells with an Hitachi F-2000 fluorimeter at excitation and emission wavelengths of 340 and 380 nm (exc.) and 505 nm (em.), respectively. Measurements were carried out at 20° C. At the end of each single measurement maximal and minimal ratios were determined by addition of Triton X-100 and EGTA/Tris.

A short description of data set [2]: Tolerability of intraperitoneal injection in Lewis rats. It counts as in vivo. The source says: Limited solubility of BZ194 excluded intravenous application due to embolic complications.

Consider `CCCCCCCCNC(=O)C[n+]1cccc(C(=O)O)c1.[Br-]` [BZ194, 3-Carboxy-1-Octylcarbamoylmethyl-Pyridinium], for which the “average velocity of TMBP-GFP cells” value in the data set with TMBP-GFP cells is recorded as 3.5 μm/min. Further, the proliferation result in the data set with OVA-specific T cells is “anti-proliferative effect”. The “TCR/CD3 complex mediated Ca2+ signalling” value in data set [1] is “partially blocked”. Besides, in data set [2] (higher amounts of BZ194 i.p.), the adverse effect entry was “occasionally induced peritonitis”. In addition, the “tolerability (inspection, weight development, immune cell count)” value in data set [2] (i.p., solubilized in DMSO, 180 mg/kg, 5 days) is “well tolerated”.

The record behind these values is patent US20070105810A1, “THERAPEUTICS” (priority 2003, published 2007).
